Key:
Format in all cases: in vivo
[1] = tested on: Rice water weevil [Lissorhoptrus oryzophilus (Kuschel)]; assay: Rice water weevil insecticidal test; conditions: topical, μg per weevil; 48 hours
Procedure: The compounds in Tables 1 and 2 above were tested for insecticidal activity using the following testing procedures. LC50 values, based on the results of these tests and calculated according to dosage-mortality curves, are expressed in Table 3.
Rice water weevil [Lissorhoptrus oryzophilus (Kuschel)]:
Test compounds were diluted in acetone. Droplets (1 μl) of test solutions were applied to the ventral abdomens of ten female adult weevils. The treated weevils were placed in containers with wet cotton balls and rice foliage. The containers were covered and kept at a temperature of about 25° C. Mortality was recorded after 48 hours. Test concentrations ranged from […] or 2.5 μg per weevil down to that at which 50% mortality occurred. The LC50 values are expressed below in Table 3 under the heading "RWW" in terms of μg of test compound per weevil.

[2] = tested on: Aster Leafhopper [Macrosteles fascifrens (Stal)]; assay: Aster leafhopper insecticidal test; conditions: adults/nymphs, percent in solution; 48 hours
Procedure, shortened: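 LC50 values, given as percent of test compound in the dip solution, were derived from dosage-mortality curves over concentrations from 0.05% downward. Mortality was counted 48 hours after ten leafhopper adults/nymphs were enclosed on treated seedlings. The seedlings were oats, about 10 cm tall, briefly dipped in 50-50 acetone-water.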

[3] = tested on: Beet Armyworm (Spodoptera exigua); assay: Beet armyworm insecticidal test; conditions: second-instar larvae, percent in solution; five days
Procedure, shortened: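 Five second-instar larvae per dish fed on dried sugar beet leaves previously dipped 2–3 s in acetone-water (1:1) test solutions up to 0.1%. Kept at high humidity, with deaths counted after five days; LC50 as % in solution via dosage-mortality curves.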

[4] = tested on: Tobacco Budworm [Heliothis virescens (Fabricius)] eggs; assay: Tobacco budworm egg test; conditions: 2-day old eggs, percent in solution
Procedure, shortened: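 LC50 is given as percent compound in the dipping solution, fitted from dosage-mortality curves. Two-day-old eggs on paper towel were dipped in acetone solutions (top concentration 0.1%), kept at 78° F on rearing medium, and scored after control hatch and larval feeding.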

[5] = tested on: Tobacco Budworm [Heliothis virescens (Fabricius)] larvae; assay: Tobacco budworm contact test; conditions: second-instar larvae, percent in solution, 5 days
Procedure, shortened: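 Cotton cotyledons dipped 2–3 s in compound in 50-50 acetone-water, dried, then infested with 5 second-instar larvae and held 5 days at high humidity. Mortality scored; LC50 from dosage-mortality curves, expressed as percent compound in solution, concentrations from 0.1% downward.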

[6] = tested on: Housefly [Musca domestica]; assay: Housefly insecticidal test; conditions: μg per 25 female flies; mortality after 48 hours
Procedure, shortened: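 LC50, as μg compound per 25 female flies, comes from dosage-mortality curves with doses from 100 μg downward. Residues were made by evaporating acetone plus 0.01% peanut oil in dishes, onto which 1-2-day-old females were caged; deaths were counted after 48 hours.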

[7] = tested on: Cabbage Looper [Trichoplusia ni (Hubner)]; assay: Cabbage looper insecticidal test; conditions: second-instar larvae, percent in solution; 3-5 days
Procedure, shortened: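 LC50, as percent test compound in solution, derived from dosage-mortality curves; concentrations started at 0.1% and went lower. Five second-instar larvae per dish fed on acetone-water-dipped, dried squash cotyledons in a humid chamber. Deaths recorded 3-5 days post-infestation.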

[8] = tested on: Maize weevil [Sitophilus Zeamais (Motschulsky)]; assay: Maize weevil insecticidal test; conditions: adult weevils, percent in solution; 48 hours
Procedure, shortened: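 LC50, in percent of compound in solution, was derived from dosage-mortality curves after 48 h at about 25 °C. Ten adult weevils per container fed on four corn seeds briefly immersed in acetone:water (50:50) solutions of up to 0.01% and dried.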

SMILES | LC50, RWW [1] | LC50, LH [2] | LC50, BAW [3] | LC50, TBW, E (TBW-E) [4] | LC50, TBW, C (TBW-C) [5] | LC50, HF [6] | LC50, CL [7] | LC50, MW [8]
CC(C)C(=Nc1cc(F)cc(F)c1)OCc1cccc(Oc2ccccc2)c1 [Compound 55] | > 2.5 µg | 0.0005% | 0.006% | 0.06% | 0.004% | > 100 µg | 0.0017% | –
FC(F)(F)c1cccc(N=C(OCc2cccc(Oc3ccccc3)c2)C(Cl)Cl)c1 [Compound 66] | > 2.5 µg | 0.001% | 0.0065% | 0.06% | – | 9.7 µg | < 0.0025% | –
CC(C)C(=Nc1ccc(F)c(Cl)c1)OCc1ccc(F)c(Oc2ccccc2)c1 [Compound 82] | 0.086 µg | 0.0001% | 0.0025% | 0.006% | 0.0008% | 2.5 µg | 0.00018% | –
CC(C)C(=Nc1ccc2c(c1)OCO2)OCc1ccc(F)c(Oc2ccccc2)c1 [Compound 181] | > 2.5 µg | – | 0.001% | 0.01% | 0.001% | 25 µg | 0.0005% | 0.005%
CC(C)C(=Nc1ccc2c(c1)OC(F)(F)O2)OCc1cccc(Oc2ccc(F)cc2)c1 [Compound 244] | 0.09 µg | – | 0.002% | > 0.1% | 0.00025% | 14 µg | 0.00004% | 0.0025%
CC(C)C(=Nc1ccc2c(c1)OC(F)(F)O2)OCc1cccc(Oc2ccccc2)c1 [Compound 245] | > 2.5 µg | – | 0.001% | 0.016% | 0.0015% | 20 µg | 0.0035% | 0.006%
CC(C)C(=Nc1ccc(F)c(I)c1)OCc1ccc(F)c(Oc2ccc(F)cc2)c1 [Compound 281] | > 2.5 µg | – | 0.0027% | 0.006% | 0.00025% | 5 µg | 0.00002% | 0.005%
CC(C)C(=Nc1ccc2c(c1)OC(F)(F)O2)OCc1ccc(F)c(Oc2ccccc2)c1 [Compound 285] | 0.13 µg | – | 0.0006% | 0.005% | 0.00017% | 36 µg | 0.000075% | 0.005%
CC(C)C(=Nc1ccc(F)c(F)c1)OCc1ccc(F)c(Oc2ccc(Cl)cc2)c1 [Compound 295] | > 2.5 µg | 0.0001% | – | 0.01% | 0.0005% | 7.8 µg | 0.00004% | 0.0053%
CC(C)C(=Nc1ccc(Cl)c(Cl)c1)OCc1ccc(F)c(Oc2ccc(Cl)cc2)c1 [Compound 296] | 0.14 µg | 0.0003% | – | 0.025% | 0.00045% | 38 µg | 0.00025% | –
CC(C)C(=Nc1ccc(F)c(Br)c1)OCc1ccc(F)c(Oc2ccc(Cl)cc2)c1 [Compound 298] | > 2.5 µg | 0.0001% | – | 0.015% | 0.0008% | 13 µg | 0.0001% | 0.008%
CC(C)C(=Nc1ccc(F)c(C(F)(F)F)c1)OCc1ccc(F)c(Oc2ccccc2)c1 [Compound 300] | 0.075 µg | 0.00002% | – | 0.024% | 0.001% | 14 µg | 0.0003% | 0.01%
CC(C)C(=Nc1ccc(C(F)(F)F)cc1)OCc1ccc(F)c(Oc2ccc(Cl)cc2)c1 [Compound 324] | 0.06 µg | – | 0.0024% | 0.025% | 0.0004% | > 100 µg | 0.00014% | –
CC(C)C(=Nc1ccc(F)cc1)OCc1ccc(F)c(Oc2ccc(Cl)cc2)c1 [Compound 325] | > 2.5 µg | – | 0.0025% | 0.037% | 0.0006% | 5 µg | 0.00012% | –
CC(C)C(=Nc1ccc(F)c(Cl)c1F)OCc1ccc(F)c(Oc2ccc(F)cc2)c1 [Compound 330] | 0.06 µg | < 0.05% | – | 0.037% | 0.00035% | 5 µg | 0.00012% | 0.001%
CC(C)C(=Nc1ccc(F)c(Cl)c1F)OCc1cccc(Oc2ccc(Cl)cc2)c1 [Compound 331] | > 2.5 µg | – | 0.002% | 0.04% | 0.0004% | 20 µg | 0.0002% | –
CC(C)C(=Nc1ccc(F)c(F)c1)OCc1ccc(F)c(Oc2ccccc2)c1 [Compound 336] | > 2.5 µg | – | 0.001% | 0.02% | 0.0005% | 3.6 µg | 0.00017% | 0.0091%
CC(C)C(=Nc1ccc(C(F)(F)F)cc1)OCc1ccc(F)c(Oc2ccccc2)c1 [Compound 337] | 0.067 µg | – | 0.0005% | 0.008% | 0.0005% | 21 µg | 0.0007% | 0.0053%
CC(C)C(=Nc1ccc(OC(F)(F)F)cc1)OCc1ccc(F)c(Oc2ccccc2)c1 [Compound 338] | 0.044 µg | – | – | 0.01% | 0.00037% | 26 µg | 0.000065% | 0.0053%
CC(C)C(=Nc1ccc(F)c(F)c1F)OCc1ccc(F)c(Oc2ccc(F)cc2)c1 [Compound 349] | > 2.5 µg | – | > 0.1% | > 0.1% | 0.0004% | 4.9 µg | 0.00007% | > 0.01%
CC(C)C(=Nc1ccc(F)c(Cl)c1F)OCc1ccc(F)c(Oc2ccccc2)c1 [Compound 451] | 0.065 µg | 0.0002% | – | > 0.1% | 0.00025% | 3.6 µg | 0.0001% | 0.0051%
CC(C)C(=Nc1ccc(F)c(Cl)c1)OCc1cccc(Oc2ccc(F)cc2)n1 [Compound 461] | > 2.5 µg | – | 0.0035% | 0.01% | – | 6 µg | 0.00008% | 0.0075%

Source: patent US5070210A, “Novel ketenimines as intermediates for insecticides” (ICI Americas Inc., priority 1990, dated 1991)
